Results reported in ChEMBL document CHEMBL3045059, “Efficacy of ketoenols on insecticide resistant field populations of two-spotted spider mite Tetranychus urticae and sweet potato whitefly Bemisia tabaci from Greece” (2012).
Converted amounts (≈) assume the structure as drawn.

Experiments:
Format in all cases: functional
Bemisia tabaci [1] = experiment: Resistance ratio, ratio of imidacloprid LC50 to compound LC50 for second-instar nymph stage of Bemisia tabaci (sweet potato whitefly) greenhouse population GR192
Bemisia tabaci [2] = experiment: Acaricidal activity against second-instar nymph stage of Bemisia tabaci (sweet potato whitefly) greenhouse population GR188 in cotton leaves assessed as mortality incubated for 5 secs measured after 10 to 12 days
Bemisia tabaci [3] = experiment: Acaricidal activity against second-instar nymph stage of Bemisia tabaci (sweet potato whitefly) greenhouse population GR194 in cotton leaves assessed as mortality incubated for 5 secs measured after 10 to 12 days
Bemisia tabaci [4] = experiment: Acaricidal activity against second-instar nymph stage of Bemisia tabaci (sweet potato whitefly) greenhouse population GR258 in cotton leaves assessed as mortality incubated for 5 secs measured after 10 to 12 days
Bemisia tabaci [5] = experiment: Acaricidal activity against second-instar nymph stage of Bemisia tabaci (sweet potato whitefly) greenhouse population GR191 in cotton leaves assessed as mortality incubated for 5 secs measured after 10 to 12 days
Bemisia tabaci [6] = experiment: Acaricidal activity against second-instar nymph stage of Bemisia tabaci (sweet potato whitefly) laboratory strain GRMAL-RN in cotton leaves assessed as mortality incubated for 5 secs measured after 10 to 12 days
Bemisia tabaci [7] = experiment: Acaricidal activity against second-instar nymph stage of Bemisia tabaci (sweet potato whitefly) greenhouse population GR187 in cotton leaves assessed as mortality incubated for 5 secs measured after 10 to 12 days
Bemisia tabaci [8] = experiment: Resistance ratio, ratio of alpha-cypermethrin LC50 to compound LC50 for second-instar nymph stage of Bemisia tabaci (sweet potato whitefly) greenhouse population GR187
Bemisia tabaci [9] = experiment: Resistance ratio, ratio of alpha-cypermethrin LC50 to compound LC50 for second-instar nymph stage of Bemisia tabaci (sweet potato whitefly) greenhouse population GR165
Bemisia tabaci [10] = experiment: Resistance ratio, ratio of imidacloprid LC50 to compound LC50 for second-instar nymph stage of Bemisia tabaci (sweet potato whitefly) field population GR259
Bemisia tabaci [11] = experiment: Resistance ratio, ratio of alpha-cypermethrin LC50 to compound LC50 for second-instar nymph stage of Bemisia tabaci (sweet potato whitefly) field population GR157
Bemisia tabaci [12] = experiment: Resistance ratio, ratio of alpha-cypermethrin LC50 to compound LC50 for second-instar nymph stage of Bemisia tabaci (sweet potato whitefly) field population GR163
Bemisia tabaci [13] = experiment: Resistance ratio, ratio of imidacloprid LC50 to compound LC50 for second-instar nymph stage of Bemisia tabaci (sweet potato whitefly) greenhouse population GR188
Bemisia tabaci [14] = experiment: Resistance ratio, ratio of imidacloprid LC50 to compound LC50 for second-instar nymph stage of Bemisia tabaci (sweet potato whitefly) greenhouse population GR165
Bemisia tabaci [15] = experiment: Resistance ratio, ratio of imidacloprid LC50 to compound LC50 for second-instar nymph stage of Bemisia tabaci (sweet potato whitefly) greenhouse population GR164
Bemisia tabaci [16] = experiment: Resistance ratio, ratio of alpha-cypermethrin LC50 to compound LC50 for second-instar nymph stage of Bemisia tabaci (sweet potato whitefly) greenhouse population GR194
Bemisia tabaci [17] = experiment: Resistance ratio, ratio of alpha-cypermethrin LC50 to compound LC50 for second-instar nymph stage of Bemisia tabaci (sweet potato whitefly) greenhouse population GR191
Bemisia tabaci [18] = experiment: Resistance ratio, ratio of imidacloprid LC50 to compound LC50 for second-instar nymph stage of Bemisia tabaci (sweet potato whitefly) laboratory strain GRMAL-RN
Bemisia tabaci [19] = experiment: (§1) Acaricidal activity against second-instar nymph stage of Bemisia tabaci (sweet potato whitefly) greenhouse population GR164 in cotton leaves assessed as mortality incubated for 5 secs measured after 10 to 12 days
Bemisia tabaci [20] = experiment: Resistance ratio, ratio of alpha-cypermethrin LC50 to compound LC50 for second-instar nymph stage of Bemisia tabaci (sweet potato whitefly) greenhouse population GR164
Bemisia tabaci [21] = experiment: Acaricidal activity against second-instar nymph stage of Bemisia tabaci (sweet potato whitefly) field population GR157 in cotton leaves assessed as mortality incubated for 5 secs measured after 10 to 12 days
Bemisia tabaci [22] = experiment: Resistance ratio, ratio of alpha-cypermethrin LC50 to compound LC50 for second-instar nymph stage of Bemisia tabaci (sweet potato whitefly) greenhouse population GR192
Bemisia tabaci [23] = experiment: Resistance ratio, ratio of imidacloprid LC50 to compound LC50 for second-instar nymph stage of Bemisia tabaci (sweet potato whitefly) field population GR163
Bemisia tabaci [24] = experiment: as §1, with “survival of the parent population at 30 mg/l” for “mortality”, “days by applying constant selection pressure under laboratory conditions” for “days”
Bemisia tabaci [25] = experiment: Acaricidal activity against second-instar nymph stage of Bemisia tabaci (sweet potato whitefly) field population GR163 in cotton leaves assessed as mortality incubated for 5 secs measured after 10 to 12 days
Bemisia tabaci [26] = experiment: Resistance ratio, ratio of imidacloprid LC50 to compound LC50 for second-instar nymph stage of Bemisia tabaci (sweet potato whitefly) greenhouse population GR258
Bemisia tabaci [27] = experiment: Resistance ratio, ratio of alpha-cypermethrin LC50 to compound LC50 for second-instar nymph stage of Bemisia tabaci (sweet potato whitefly) laboratory strain GRMAL-RP
Bemisia tabaci [28] = experiment: Acaricidal activity against second-instar nymph stage of Bemisia tabaci (sweet potato whitefly) greenhouse population GR192 in cotton leaves assessed as mortality incubated for 5 secs measured after 10 to 12 days
Bemisia tabaci [29] = experiment: as §1, with “survival at 30 mg/l at the last selection cycle of four generations” for “mortality”, “days by applying constant selection pressure under laboratory conditions” for “days”
Bemisia tabaci [30] = experiment: Resistance ratio, ratio of alpha-cypermethrin LC50 to compound LC50 for second-instar nymph stage of Bemisia tabaci (sweet potato whitefly) field population GR259
Bemisia tabaci [31] = experiment: Acaricidal activity against second-instar nymph stage of Bemisia tabaci (sweet potato whitefly) field population GR259 in cotton leaves assessed as mortality incubated for 5 secs measured after 10 to 12 days
Bemisia tabaci [32] = experiment: Resistance ratio, ratio of imidacloprid LC50 to compound LC50 for second-instar nymph stage of Bemisia tabaci (sweet potato whitefly) greenhouse population GR187
Bemisia tabaci [33] = experiment: Resistance ratio, ratio of imidacloprid LC50 to compound LC50 for second-instar nymph stage of Bemisia tabaci (sweet potato whitefly) greenhouse population GR194
Bemisia tabaci [34] = experiment: Resistance ratio, ratio of imidacloprid LC50 to compound LC50 for second-instar nymph stage of Bemisia tabaci (sweet potato whitefly) greenhouse population GR191
Bemisia tabaci [35] = experiment: Resistance ratio, ratio of alpha-cypermethrin LC50 to compound LC50 for second-instar nymph stage of Bemisia tabaci (sweet potato whitefly) greenhouse population GR258
Bemisia tabaci [36] = experiment: Resistance ratio, ratio of imidacloprid LC50 to compound LC50 for second-instar nymph stage of Bemisia tabaci (sweet potato whitefly) field population GR157
Bemisia tabaci [37] = experiment: Resistance ratio, ratio of alpha-cypermethrin LC50 to compound LC50 for second-instar nymph stage of Bemisia tabaci (sweet potato whitefly) greenhouse population GR188
Bemisia tabaci [38] = experiment: Acaricidal activity against second-instar nymph stage of Bemisia tabaci (sweet potato whitefly) laboratory strain GRMAL-RP in cotton leaves assessed as mortality incubated for 5 secs measured after 10 to 12 days
Bemisia tabaci [39] = experiment: Acaricidal activity against second-instar nymph stage of Bemisia tabaci (sweet potato whitefly) greenhouse population GR165 in cotton leaves assessed as mortality incubated for 5 secs measured after 10 to 12 days

Molecule `Cc1cc(C)c(C2=C(OC(=O)CC(C)(C)C)C3(CCCC3)OC2=O)c(C)c1` [SPIROMESIFEN] has a RatioLC50 (Bemisia tabaci [1]) of 323, an LC95 (Bemisia tabaci [2]) of 21.41 µg/mL (≈ 57.8 µM) and an LC50 (Bemisia tabaci [2]; Bemisia tabaci, GR188, Nymph stage) of 6.1 µg/mL (≈ 16.5 µM). It also gave an LC95 (Bemisia tabaci [3]) of 49.23 µg/mL (≈ 133 µM), an LC50 (Bemisia tabaci [3]; Bemisia tabaci, GR194, Nymph stage) of 6.4 µg/mL (≈ 17.3 µM) and an LC95 (Bemisia tabaci [4]) of 49.19 µg/mL (≈ 133 µM). It also gave an LC50 (Bemisia tabaci [4]; Bemisia tabaci, GR258, Nymph stage) of 12 µg/mL (≈ 32.4 µM), an LC95 (Bemisia tabaci [5]) of 18.62 µg/mL (≈ 50.3 µM) and an LC50 (Bemisia tabaci [5]; Bemisia tabaci, GR191, Nymph stage) of 5.1 µg/mL (≈ 13.8 µM). For the same molecule, the LC95 (Bemisia tabaci [6]) was 47.61 µg/mL (≈ 129 µM), the LC50 (Bemisia tabaci [6]; Bemisia tabaci, GRMAL-RN, Nymph stage) was 6.7 µg/mL (≈ 18.1 µM) and the LC95 (Bemisia tabaci [7]) was 24.95 µg/mL (≈ 67.3 µM). The LC50 (Bemisia tabaci [7]; Bemisia tabaci, GR187, Nymph stage) was 4.6 µg/mL (≈ 12.4 µM), the RatioLC50 (Bemisia tabaci [8]) was 101 and the RatioLC50 (Bemisia tabaci [9]) was 256. It also gave a RatioLC50 (Bemisia tabaci [10]) of 323, a RatioLC50 (Bemisia tabaci [11]) of 426 and a RatioLC50 (Bemisia tabaci [12]) of 478. For the same molecule, the RatioLC50 (Bemisia tabaci [13]) was 353, the RatioLC50 (Bemisia tabaci [14]) was 73 and the RatioLC50 (Bemisia tabaci [15]) was 7. For the same molecule, the RatioLC50 (Bemisia tabaci [16]) was 142, the RatioLC50 (Bemisia tabaci [17]) was 179 and the RatioLC50 (Bemisia tabaci [18]) was 958. For the same molecule, the LC95 (Bemisia tabaci [19]) was 69.44 µg/mL (≈ 187 µM), the LC50 (Bemisia tabaci [19]; Bemisia tabaci, GR164, Nymph stage) was 12 µg/mL (≈ 32.4 µM) and the RatioLC50 (Bemisia tabaci [20]) was 42. For the same molecule, the LC95 (Bemisia tabaci [21]) was 139.9 µg/mL (≈ 378 µM), the LC50 (Bemisia tabaci [21]; Bemisia tabaci, GR157, Nymph stage) was 5.4 µg/mL (≈ 14.6 µM) and the RatioLC50 (Bemisia tabaci [22]) was 179. The RatioLC50 (Bemisia tabaci [23]) was 46, the survival at 30 µg/mL (Bemisia tabaci [24]) was 27% and the LC95 (Bemisia tabaci [25]) was 85.08 µg/mL (≈ 230 µM). For the same molecule, the LC50 (Bemisia tabaci [25]; Bemisia tabaci, GR163, Nymph stage) was 11.6 µg/mL (≈ 31.3 µM), the RatioLC50 (Bemisia tabaci [26]) was 369 and the RatioLC50 (Bemisia tabaci [27]) was greater than 621. For the same molecule, the LC95 (Bemisia tabaci [28]) was 44.79 µg/mL (≈ 121 µM), the LC50 (Bemisia tabaci [28]; Bemisia tabaci, GR192, Nymph stage) was 14 µg/mL (≈ 37.8 µM) and the survival at 30 µg/mL (Bemisia tabaci [29]) was 13%. It also gave a RatioLC50 (Bemisia tabaci [30]) of 741, an LC95 (Bemisia tabaci [31]) of 30.74 µg/mL (≈ 83 µM) and an LC50 (Bemisia tabaci [31]; Bemisia tabaci, GR259, Nymph stage) of 7.9 µg/mL (≈ 21.3 µM). For the same molecule, the RatioLC50 (Bemisia tabaci [32]) was 94, the RatioLC50 (Bemisia tabaci [33]) was 247 and the RatioLC50 (Bemisia tabaci [34]) was 120. It also gave a RatioLC50 (Bemisia tabaci [35]) of 1190, a RatioLC50 (Bemisia tabaci [36]) of 88 and a RatioLC50 (Bemisia tabaci [37]) of 105. The LC95 (Bemisia tabaci [38]) was 50.31 µg/mL (≈ 136 µM), the LC50 (Bemisia tabaci [38]; Bemisia tabaci, GRMAL-RP, Nymph stage) was 1.1 µg/mL (≈ 2.97 µM) and the LC95 (Bemisia tabaci [39]) was 37.16 µg/mL (≈ 100 µM). The LC50 (Bemisia tabaci [39]; Bemisia tabaci, GR165, Nymph stage) was 4.5 µg/mL (≈ 12.1 µM).
